The supplement of paper PMC11061612

Legend:
Test in all cases: Bliss excess, mean over the matrix (fraction); higher = more synergy
[1] = tested on: 22RV1 (Prostate Carcinoma)
Summary of the method: (§1)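 After 24 hours at 37°C and 5% CO2 in 1536-well plates, cells in DMEM/F12 or RPMI plus 10% FBS received two-drug dose matrices for 72 hours. Viability came from CellTiter-Glo 2.0 luminescence and was scaled as inhibition, anchored at 0 by vehicle wells and at 1 by blank wells. Combination Emax is taken as the second-highest inhibition in the matrix, and Bliss excess as the observed combination effect less EA + EB − EA·EB, with EA and EB the single-agent effects.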

[2] = tested on: HCC1395 (Breast Carcinoma)
Summary of the method: as §1

IM-9 (Non-Cancerous) = tested on: IM-9 (Non-Cancerous)
Summary of the method: as §1

[3] = tested on: MHH-ES-1 (Ewing's Sarcoma)
Summary of the method: as §1

A101D (Melanoma) = tested on: A101D (Melanoma)
Summary of the method: as §1

[4] = tested on: LS-411N (Colorectal Carcinoma)
Summary of the method: as §1

[5] = tested on: A253 (Head and Neck Carcinoma)
Summary of the method: as §1

AU565 (Breast Carcinoma) = tested on: AU565 (Breast Carcinoma)
Summary of the method: as §1

[6] = tested on: CESS (Acute Myeloid Leukemia)
Summary of the method: as §1

[7] = tested on: ESO26 (Esophageal Adenocarcinoma)
Summary of the method: as §1

EW-16 (Ewing's Sarcoma) = tested on: EW-16 (Ewing's Sarcoma)
Summary of the method: as §1

[8] = tested on: G-402 (Other Solid Carcinomas)
Summary of the method: as §1

[9] = tested on: GCT (Other Solid Carcinomas)
Summary of the method: as §1

[10] = tested on: JIMT-1 (Breast Carcinoma)
Summary of the method: as §1

[11] = tested on: JVM-2 (B-Cell Non-Hodgkin's Lymphoma)
Summary of the method: as §1

[12] = tested on: OACp4C (Esophageal Adenocarcinoma)
Summary of the method: as §1

SMILES	Bliss excess [1]	Bliss excess [2]	Bliss excess (IM-9 (Non-Cancerous))	Bliss excess [3]	other results
C[C@@H]1COCCN1c1cc(C2([S@](C)(=N)=O)CC2)nc(-c2ccnc3[nH]ccc23)n1 [AZD6738] + C1CC(C1)(C(=O)[O-])C(=O)[O-].N.N.[Pt+2] [Carboplatin] (first compound max 10 µM, 7x7, partner max 10 µM)	-0.0138	-0.0573	0.0081	-0.0078	
CC1(C)CCC(CN2CCN(c3ccc(C(=O)NS(=O)(=O)c4ccc(NCC5CCOCC5)c([N+](=O)[O-])c4)c(Oc4cnc5[nH]ccc5c4)c3)CC2)=C(c2ccc(Cl)cc2)C1 [Venetoclax] + CS(=O)(=O)CCNCc1ccc(-c2ccc3ncnc(Nc4ccc(OCc5cccc(F)c5)c(Cl)c4)c3c2)o1 [Lapatinib] (first compound max 1 µM, 7x7, partner max 10 µM)	-0.0688	-0.0509	0.0902	0.0086	
Cc1nc(-c2cn3c(n2)-c2ccc(-c4cnn(C(C)(C)C(N)=O)c4)cc2OCC3)n(C(C)C)n1 [Taselisib] + O=C(Nc1ccc2[nH]nc(-c3ccncc3)c2c1)[C@@H]1CCN(CC(=O)N2CCN(c3ccc(-c4ncccn4)cc3)CC2)C1 [SCH772984] (first compound max 10 µM, 7x7, partner max 5 µM)	0.0502	0.0294	-0.0407	0.102	
C[C@@H](Nc1cc(F)cc(F)c1)c1cc(C(=O)N(C)C)cc2c(=O)cc(N3CCOCC3)oc12 [AZD8186] + CC(=O)c1c(C)c2cnc(Nc3ccc(N4CCNCC4)cn3)nc2n(C2CCCC2)c1=O [Palbociclib] (first compound max 10 µM, 7x7, partner max 10 µM)	-0.0421	0.063	0.112	0.108	
O=C(c1cc(Cc2n[nH]c(=O)c3ccccc23)ccc1F)N1CCN(C(=O)C2CC2)CC1 [Olaparib] + Cc1c2c(nn1C)CSCc1cc(n(C)n1)CSc1cc(c3ccccc3c1)OCCCc1c(C(=O)O)n(C)c3c-2c(Cl)ccc13 [AZD5991] (first compound max 10 µM, 7x7, partner max 1 µM)	-0.0012	-0.016	0.0865	0.0108	
Cc1c2c(nn1C)CSCc1cc(n(C)n1)CSc1cc(c3ccccc3c1)OCCCc1c(C(=O)O)n(C)c3c-2c(Cl)ccc13 [AZD5991] + CC(=O)O[C@H]1C(=O)[C@@]2(C)[C@H]([C@H](OC(=O)c3ccccc3)[C@]3(O)C[C@H](OC(=O)[C@H](O)[C@@H](NC(=O)c4ccccc4)c4ccccc4)C(C)=C1C3(C)C)[C@]1(OC(C)=O)CO[C@@H]1C[C@@H]2O [Paclitaxel] (first compound max 1 µM, 7x7, partner max 3 µM)	0.0731	0.0501	0.0008	-0.009	
C[C@@H](Oc1cc(-c2cnn(C3CCNCC3)c2)cnc1N)c1c(Cl)ccc(F)c1Cl [Crizotinib] + Cn1cnc2c(F)c(Nc3ccc(Br)cc3Cl)c(C(=O)NOCCO)cc21 [Selumetinib] (first compound max 10 µM, 7x7, partner max 10 µM)	0.0331	-0.0786	-0.009	-0.0236	
Cc1c2c(nn1C)CSCc1cc(n(C)n1)CSc1cc(c3ccccc3c1)OCCCc1c(C(=O)O)n(C)c3c-2c(Cl)ccc13 [AZD5991] + CS(=O)(=O)CCNCc1ccc(-c2ccc3ncnc(Nc4ccc(OCc5cccc(F)c5)c(Cl)c4)c3c2)o1 [Lapatinib] (first compound max 1 µM, 7x7, partner max 10 µM)	-0.0131	-0.0227	0.0138	0.0286	
O=C(c1cc(Cc2n[nH]c(=O)c3ccccc23)ccc1F)N1CCN(C(=O)C2CC2)CC1 [Olaparib] + CN(CC[C@H](CSC1=CC=CC=C1)NC2=C(C=C(C=C2)S(=O)(=O)NC(=O)C3=CC=C(C=C3)N4CCC(CC4)[C@H](C5=CC=CC=C5C6=CC=C(C=C6)Cl)O)S(=O)(=O)C(F)(F)F)CCO [AZD4320] (first compound max 10 µM, 7x7, partner max 1 µM)	-0.0864	-0.0335	0.141	0.0657	
CS(=O)(=O)CCNCc1ccc(-c2ccc3ncnc(Nc4ccc(OCc5cccc(F)c5)c(Cl)c4)c3c2)o1 [Lapatinib] + NC1(c2ccc(-c3nc4ccn5c(=O)[nH]nc5c4cc3-c3ccccc3)cc2)CCC1 [MK-2206] (first compound max 10 µM, 7x7, partner max 10 µM)	-0.0139	-0.0376	0.0096	0.0191	Bliss excess (A101D (Melanoma)): -0.0638; Bliss excess [4]: -0.0339
C=CCn1c(=O)c2cnc(Nc3ccc(N4CCN(C)CC4)cc3)nc2n1-c1cccc(C(C)(C)O)n1 [AZD1775] + Nc1ccn([C@@H]2O[C@H](CO)[C@@H](O)C2(F)F)c(=O)n1 [Gemcitabine] (first compound max 1 µM, partner max 0.3 µM)	-0.0225	0.0294	0.0398	0.0359	
C[C@@H](Oc1cc(-c2cnn(C3CCNCC3)c2)cnc1N)c1c(Cl)ccc(F)c1Cl [Crizotinib] + CC1=C(C(=CC=C1)Cl)NC(=O)C2=CN=C(S2)NC3=CC(=NC(=N3)C)N4CCN(CC4)CCO [Dasatinib] (first compound max 10 µM, 7x7, partner max 2 µM)	-0.0187	0.0615	0.0001	-0.0279	
C[C@@H]1COCCN1c1cc(C2([S@](C)(=N)=O)CC2)nc(-c2ccnc3[nH]ccc23)n1 [AZD6738] + Nc1ccn([C@@H]2O[C@H](CO)[C@@H](O)C2(F)F)c(=O)n1 [Gemcitabine] (first compound max 10 µM, 7x7, partner max 0.3 µM)	-0.0011	0.0334	-0.0189	0.0624	
C[C@@H](Nc1cc(F)cc(F)c1)c1cc(C(=O)N(C)C)cc2c(=O)cc(N3CCOCC3)oc12 [AZD8186] + C1CN(CCC1(C(=O)N[C@@H](CCO)C2=CC=C(C=C2)Cl)N)C3=NC=NC4=C3C=CN4 [AZD5363] (first compound max 10 µM, 7x7, partner max 10 µM)	-0.0401	0.0007	0.0493	0.0026	
CS(=O)(=O)CCNCc1ccc(-c2ccc3ncnc(Nc4ccc(OCc5cccc(F)c5)c(Cl)c4)c3c2)o1 [Lapatinib] + Cn1cnc2c(F)c(Nc3ccc(Br)cc3Cl)c(C(=O)NOCCO)cc21 [Selumetinib] (first compound max 10 µM, 7x7, partner max 10 µM)	-0.045	-0.0343	-0.0826	0.0015	
Cc1c2c(nn1C)CSCc1cc(n(C)n1)CSc1cc(c3ccccc3c1)OCCCc1c(C(=O)O)n(C)c3c-2c(Cl)ccc13 [AZD5991] + Nc1ccn([C@@H]2O[C@H](CO)[C@@H](O)C2(F)F)c(=O)n1 [Gemcitabine] (first compound max 1 µM, 7x7, partner max 0.3 µM)	-0.02	-0.0262	-0.0364		
CCc1c2c(nc3ccc(O)cc13)-c1cc3c(c(=O)n1C2)COC(=O)[C@]3(O)CC [SN-38] + O=C(c1cc(Cc2n[nH]c(=O)c3ccccc23)ccc1F)N1CCN(C(=O)C2CC2)CC1 [Olaparib] (first compound max 0.3 µM, 7x7, partner max 10 µM)	0.0497	0.0315	0.0871	0.0533	Bliss excess (A101D (Melanoma)): 0.114; Bliss excess [5]: 0.0223; Bliss excess (AU565 (Breast Carcinoma)): 0.0698; Bliss excess [6]: 0.0785; Bliss excess [7]: 0.0237; Bliss excess (EW-16 (Ewing's Sarcoma)): 0.076; Bliss excess [8]: 0.0614; Bliss excess [9]: 0.103; Bliss excess [10]: 0.035; Bliss excess [11]: 0.115; Bliss excess [4]: -0.012; Bliss excess [12]: 0.0413
O=C(c1cc(Cc2n[nH]c(=O)c3ccccc23)ccc1F)N1CCN(C(=O)C2CC2)CC1 [Olaparib] + CC1(C)CCC(CN2CCN(c3ccc(C(=O)NS(=O)(=O)c4ccc(NCC5CCOCC5)c([N+](=O)[O-])c4)c(Oc4cnc5[nH]ccc5c4)c3)CC2)=C(c2ccc(Cl)cc2)C1 [Venetoclax] (first compound max 10 µM, 7x7, partner max 1 µM)	-0.0622	-0.0396	0.112	0.0283	
C=CCn1c(=O)c2cnc(Nc3ccc(N4CCN(C)CC4)cc3)nc2n1-c1cccc(C(C)(C)O)n1 [AZD1775] + CCc1c2c(nc3ccc(O)cc13)-c1cc3c(c(=O)n1C2)COC(=O)[C@]3(O)CC [SN-38] (first compound max 1 µM, partner max 0.3 µM)	-0.0464	-0.0322	0.0003	-0.0073	
O=C(c1cc(Cc2n[nH]c(=O)c3ccccc23)ccc1F)N1CCN(C(=O)C2CC2)CC1 [Olaparib] + COc1nnc2ccc(N3CCC(c4ccc(OCCN5CCN(C)C(=O)[C@H]5C)cc4)CC3)nn12 [AZD5153] (first compound max 10 µM, 7x7, partner max 1 µM)	-0.0312	-0.0658	0.0107	0.0286	
CN(CCO)CC[C@H](CSc1ccccc1)Nc1ccc(S(=O)(=O)NC(=O)c2ccc(N3CCC([C@@H](O)c4ccccc4-c4ccc(Cl)cc4)CC3)cc2)cc1S(=O)(=O)C(F)(F)F [AZD4320] + CS(=O)(=O)CCNCc1ccc(-c2ccc3ncnc(Nc4ccc(OCc5cccc(F)c5)c(Cl)c4)c3c2)o1 [Lapatinib] (first compound max 1 µM, 7x7, partner max 10 µM)	-0.0394	-0.0261	0.117	0.136	
